Results as given in paper PMC2713251, “Discovery of novel inhibitors of Streptococcus pneumoniae based on the virtual screening with the homology-modeled structure of histidine kinase (VicK)” (BMC Microbiology, 2009).

Target: T1, VicK' (cytoplasmic HisKA and HATPase_c domains of histidine kinase VicK) (Streptococcus pneumoniae, UniProt A0A0H2ZNH9)
T1 construct: gene walK
Experiment: Kinase-Glo luminescent assay of residual ATP (ATPase / autophosphorylation)
Type: biochemical
Conditions: read-out: IC50 (μM) for VicK' protein
Source text: Kinase-Glo luminescent assay of residual ATP (ATPase / autophosphorylation) on VicK' (cytoplasmic HisKA and HATPase_c domains of histidine kinase VicK)

T1 sequence (A0A0H2ZNH9 201-449): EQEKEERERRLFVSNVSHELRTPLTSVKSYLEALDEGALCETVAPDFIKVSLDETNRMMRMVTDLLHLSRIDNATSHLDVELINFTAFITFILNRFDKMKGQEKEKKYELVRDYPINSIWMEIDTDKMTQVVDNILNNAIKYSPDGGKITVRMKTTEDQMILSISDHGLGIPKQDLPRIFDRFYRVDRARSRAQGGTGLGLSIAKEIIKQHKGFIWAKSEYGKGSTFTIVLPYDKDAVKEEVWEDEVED

For `Nc1nonc1C(=O)NCCNCc1ccc(OCc2cccs2)cc1` [compound 1, Compound 1], the IC50 was 542 µM.
For `COc1ccc(-c2ccc(CNCCNC(=O)c3nonc3N)o2)cc1Cl` [compound 2, Compound 2], the IC50 was 562 µM.
With `COc1ccc(CCNCc2ccc(-c3ccccc3)o2)cc1OC` [compound 3, Compound 3] the IC50 was 503 µM.
Work on `Cn1nnnc1SCCCNCc1ccc(-c2ccccc2F)o1` [compound 4, Compound 4] yielded an IC50 of over 1000 µM.
`Cn1nnnc1SCCCNCc1ccc(-c2ccc(F)c(Cl)c2)o1` [compound 5, Compound 5] was tested, and the IC50 was 598 µM.
In the case of `c1ccc2[nH]c(Nc3ccc(-c4ccc(Nc5nc6ccccc6[nH]5)cc4)cc3)nc2c1` [compound 6, Compound 6], the IC50 is reported as 32.6 µM.
